According to US10987349B2, “Antitumor agent and bromodomain inhibitor” (FUJIFILM Corporation, priority 2016, dated 2021):

What was measured:
BRD3 BD1 = molecular target: T1, BRD3 BD1 (Homo sapiens, UniProt Q15059); test: Binding assay, BRD3 BD1 to acetylated histone H4 Peptide-Biotin (EPIgeneous Binding Domain Kit A); settings: for inhibition at 0.3 µM: test compound at 300 nmol/L, read-out: Binding inhibition percentage BRD3 BD1
T1 construct: BRD2 BD1, BRD3 BD1 and BRD4 BD1 (Cisbio); purchased Cisbio
T1 sequence (Q15059 34-140 limits assumed): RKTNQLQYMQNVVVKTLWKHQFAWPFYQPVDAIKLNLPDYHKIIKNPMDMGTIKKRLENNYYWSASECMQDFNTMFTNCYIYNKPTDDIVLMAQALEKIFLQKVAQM
Description: (§1) BRD2 BD1, BRD3 BD1 and BRD4 BD1 (Cisbio), [Lys(Ac)5/8/12/16]-Histone H4(1-25)-GSGSK (Biotin) (hereinafter referred to as “Peptide-Biotin,” AnaSpec), and EPIgeneous (registered trademark) Binding Domain Kit A (Cisbio) were used to carry out an assay. That is to say, per well, 4 μL of BRD2 BD1, BRD3 BD1 or BRD4 BD1, which was adjusted to 20 nmol/L with Diluent buffer; 4 μL of 25 nmol/L Peptide-Biotin; 2 μL of Dilution buffer (Cisbio) containing dimethyl sulfoxide (DMSO) or a test compound that was serially diluted with DMSO; 5 μL of 2.5 nmol/L Streptavidin-d2; and 5 μL of Anti-Gst-Eu+^3+ Cryptate Conjugate 50-fold diluted with Detection Buffer were added to a 384-well plate (Corning).
(§2) The obtained mixture was left at rest at room temperature for 20 hours, and thereafter, the fluoresence intensity at 665 nm and 620 nm was measured using Envision plate reader (Perkin Elmer), so that the inhibition percentage (%) of the test compound against the binding of a bromodomain in a bromodomain-containing protein to Peptide-Biotin was calculated. Binding inhibition percentage (%)=[1−{(fluorescence intensity at 665 nm of test compound−added well)/(fluorescence intensity at 620 nm of test compound−added well)}/{(fluorescence intensity at 665 nm of DMSO−added well)/(fluorescence intensity at 665 nm of DMSO−added well)}]×100
(§3) Moreover, using Graphpad prism 5 (GraphPad software), 50% inhibitory concentration [IC50 (nmol/L)] was calculated according to a non-linear regression analysis (log (inhibitor) vs. response—Variable slope (four parameters)).
(§4) Regarding other test compounds, each compound was diluted with DMSO to a final concentration of 300 nmol/L by the same method as that described above, and the binding inhibition percentage (%) of each test compound at 300 nmol/L against the binding of bromodomain in a bromodomain-containing protein to acetylated histone was calculated.

BRD2 BD2 = molecular target: T2, BRD2 BD2 (Homo sapiens, UniProt P25440); test: Binding assay, BRD2 BD2 to acetylated histone H4 Peptide-Biotin (EPIgeneous Binding Domain Kit B); settings: for inhibition at 0.3 µM: test compound at 300 nmol/L, read-out: Binding inhibition percentage BRD2 BD2
T2 construct: BRD2 BD2, BRD3 BD2 and BRD4 BD2 (Cisbio); purchased Cisbio
T2 sequence (P25440 344-453 limits assumed): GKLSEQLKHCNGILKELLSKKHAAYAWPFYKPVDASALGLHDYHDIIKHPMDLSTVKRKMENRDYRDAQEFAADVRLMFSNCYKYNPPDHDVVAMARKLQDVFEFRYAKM
Description: (§5) Moreover, BRD2 BD2, BRD3 BD2 and BRD4 BD2 (Cisbio), Peptide-Biotin (AnaSpec), and EPIgeneous (registered trademark) Binding Domain Kit B (Cisbio) were used to carry out an assay. That is, per well, 4 μL of BRD2 BD2, BRD3 BD2 or BRD4 BD2, which was adjusted to 20 nmol/L with Diluent buffer; 4 μL of 250 nmol/L Peptide-Biotin; 2 μL of Dilution buffer (Cisbio) containing DMSO or a test compound that was serially diluted with DMSO; 5 μL of 25 nmol/L Streptavidin-XL665; 5 μL of Anti-Gst-Eu+^3+ Cryptate Conjugate 50-fold diluted with Detection Buffer were added to a 384-well plate (Corning).
as §2, §3, §4

BRD2 BD1 = molecular target: T3, BRD2 BD1 (Homo sapiens, UniProt P25440); test: Binding assay, BRD2 BD1 to acetylated histone H4 Peptide-Biotin (EPIgeneous Binding Domain Kit A); settings: for inhibition at 0.3 µM: test compound at 300 nmol/L, read-out: Binding inhibition percentage BRD2 BD1
T3 construct: BRD2 BD1, BRD3 BD1 and BRD4 BD1 (Cisbio); purchased Cisbio
T3 sequence (P25440 74-180 limits assumed): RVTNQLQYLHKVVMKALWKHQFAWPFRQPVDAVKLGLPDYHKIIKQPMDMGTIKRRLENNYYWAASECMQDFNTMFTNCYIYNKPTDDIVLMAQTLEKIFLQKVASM
Description: as §1, §2, §3, §4

BRD4 BD2 = molecular target: T4, BRD4 BD2 (Homo sapiens, UniProt O60885); test: Binding assay, BRD4 BD2 to acetylated histone H4 Peptide-Biotin (EPIgeneous Binding Domain Kit B); settings: for inhibition at 0.3 µM: test compound at 300 nmol/L, read-out: Binding inhibition percentage BRD4 BD2
T4 construct: BRD2 BD2, BRD3 BD2 and BRD4 BD2 (Cisbio); purchased Cisbio
Description: as §5, §2, §3, §4

BRD3 BD2 = molecular target: T5, BRD3 BD2 (Homo sapiens, UniProt Q15059); test: Binding assay, BRD3 BD2 to acetylated histone H4 Peptide-Biotin (EPIgeneous Binding Domain Kit B); settings: for inhibition at 0.3 µM: test compound at 300 nmol/L, read-out: Binding inhibition percentage BRD3 BD2
T5 construct: BRD2 BD2, BRD3 BD2 and BRD4 BD2 (Cisbio); purchased Cisbio
T5 sequence (Q15059 306-415 limits assumed): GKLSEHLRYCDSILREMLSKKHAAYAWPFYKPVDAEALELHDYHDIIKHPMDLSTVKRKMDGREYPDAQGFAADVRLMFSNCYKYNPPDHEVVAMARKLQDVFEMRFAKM
Description: as §5, §2, §3, §4

BRD4 BD1 = molecular target: T6, BRD4 BD1 (Homo sapiens, UniProt O60885); test: Binding assay, BRD4 BD1 to acetylated histone H4 Peptide-Biotin (EPIgeneous Binding Domain Kit A); settings: for inhibition at 0.3 µM: test compound at 300 nmol/L, read-out: Binding inhibition percentage BRD4 BD1
T6 construct: BRD2 BD1, BRD3 BD1 and BRD4 BD1 (Cisbio); purchased Cisbio
Description: as §1, §2, §3, §4

| inhibition at 0.3 µM (BRD3 BD1) | inhibition at 0.3 µM (BRD2 BD2) | inhibition at 0.3 µM (BRD2 BD1) | inhibition at 0.3 µM (BRD4 BD2) | inhibition at 0.3 µM (BRD3 BD2) | inhibition at 0.3 µM (BRD4 BD1) | IC50 (BRD3 BD1) | IC50 (BRD2 BD2) | IC50 (BRD2 BD1) | IC50 (BRD4 BD2) | IC50 (BRD3 BD2) | IC50 (BRD4 BD1) | SMILES |
| --- | --- | --- | --- | --- | --- | --- | --- | --- | --- | --- | --- | --- |
| 89% | 88% | 71% | 87% | 92% | 91% | – | – | – | – | – | – | CCn1c(=O)cc(C2CC2)c2cc(-n3c(C)cc(=O)n3-c3ccccc3)ccc21 [Example 282b, 4-Cyclopropyl-1-ethyl-6-(5-methyl-3-oxo-2-phenyl-2,3-dihydro-1H-pyrazol-1-yl)quinolin-2(1H)-one] |
| 87% | 86% | 68% | 87% | 92% | 90% | – | – | – | – | – | – | CCn1c(=O)cc(C2CC2)c2cc(-c3nc(C)[nH]c3-c3ccccc3)ccc21 [Example 283, 4-cyclopropyl-1-ethyl-6-(2-methyl-5-phenyl-1H-imidazol-4-yl)quinolin-2(1H)-one] |
| 93% | 88% | 83% | 89% | 92% | 93% | – | – | – | – | – | – | CCn1c(=O)cc(C2CC2)c2cc(-c3nccnc3-c3ccccc3)ccc21 [Example 284, 4-cyclopropyl-1-ethyl-6-(3-phenylpyrazin-2-yl)quinolin-2(1H)-one] |
| 94% | 89% | 91% | 89% | 93% | 95% | – | – | – | – | – | – | CCn1c(=O)cc(C2CCC(O)CC2)c2cc(C(=O)N(C)c3ccc(Cl)cc3)ccc21 (stereo not drawn) [Example 286, N-(4-chlorophenyl)-1-ethyl-4-(4-hydroxycyclohexyl)-N-methyl-2-oxo-1,2-dihydroquinoline-6-carboxamide] |
| – | – | – | – | – | – | 0.015 µM | 0.086 µM | 0.045 µM | 0.022 µM | 0.059 µM | 0.006 µM | CCn1c(=O)cc(C2CCN(C(C)=O)CC2)c2cc(C(=O)N(C)c3ccc(C)cc3)ccc21 [Example 290, 4-(1-acetylpiperidin-4-yl)-1-ethyl-N-methyl-N-(4-methylphenyl)-2-oxo-1,2-dihydroquinoline-6-carboxamide] |
| 88% | 83% | 64% | 84% | 91% | 85% | – | – | – | – | – | – | CCn1c(=O)cc(C)c2cc(-c3cccnc3-c3ccccc3)ccc21 [Example 291, 1-ethyl-4-methyl-6-(2-phenylpyridin-3-yl)quinolin-2(1H)-one] |
| 94% | 81% | 93% | 85% | 87% | 95% | – | – | – | – | – | – | CCn1c(=O)cc(C2CCN(C)CC2)c2cc(C(=O)N(C)c3ccc(C)c(F)c3)ccc21 [Example 292, 1-ethyl-N-(3-fluoro-4-methylphenyl)-N-methyl-4-(1-methylpiperidin-4-yl)-2-oxo-1,2-dihydroquinoline-6-carboxamide] |
| 93% | 88% | 94% | 87% | 90% | 94% | – | – | – | – | – | – | CCn1c(=O)cc(C2CCN(C)CC2)c2cc(C(=O)N(C)c3ccc(C)c(Cl)c3)ccc21 [Example 293, N-(3-chloro-4-methylphenyl)-1-ethyl-N-methyl-4-(1-methylpiperidin-4-yl)-2-oxo-1,2-dihydroquinoline-6-carboxamide] |
| 95% | 84% | 94% | 85% | 90% | 94% | – | – | – | – | – | – | CCn1c(=O)cc(C2CCN(C)CC2)c2cc(C(=O)N(C)c3ccc(C)c(C)c3)ccc21 [Example 294, N-(3,4-dimethylphenyl)-1-ethyl-N-methyl-4-(1-methylpiperidin-4-yl)-2-oxo-1,2-dihydroquinoline-6-carboxamide] |
